Results on one compound are retold here after PMC9822133, “Design, Synthesis and Antiproliferative Evaluation of Bis-Indole Derivatives with a Phenyl Linker: Focus on Autophagy” (Molecules, 2022).

What all share (assay type): cell-based, human
In assay [1] the test system is glutathione reductase (GR). The experiment in a line: GR activity in treated A549 cells. The following applies: A549, 20 µM. The source says: Glutathione is an important intracellular molecule involved in carcinogen detoxification. On the other hand, its elevated state in cancer cells is often associated with resistance to chemotherapy. […] Because high levels of GSH are associated with cancer cell resistance, the GHS-depleting effect of compound 49 could be interesting due to new cancer chemosensitizer development. In the case of GST and GR, we hypothesize that an increase in the activity of both enzymes may be a compensatory mechanism induced by GSH depletion.
Both floating and adherent A549 cells were harvested at 24, 48, and 72 h after treatment with compound 49 (20 µM). SOD determination kit, Glutathione Peroxidase Cellular Activity Assay kit, Glutathione Reductase Assay Kit and Glutathione-S-transferase (GST) Assay Kit (all Sigma Aldrich, Germany) were used for the detection of relevant enzyme activity. Reduced glutathione (GSH) content was measured by the method originally described by Floreani et al.. Assays were performed on an M 501 single beam UV/VIS spectrophotometer (Spectronic Camspec Ltd., Leeds, United Kingdom). All measured parameters were calculated per milligram or gram of protein determined using the bicinchoninic acid assay.

A further assay has as its system p62/SQSTM1. The experiment in a line: Western blot, p62. The note with it: A549, 24, 48, 72 h, p < 0.001 vs DMSO. The text has this: Protein p62, also known as sequestosome 1, is a multifunctional, classic autophagy receptor, considered together with LC3AB as an important marker of ongoing autophagic flux. It is involved in cell signaling, metabolism, oxidative stress and cell death. Its main function is the degradation of misfolded proteins through the ubiquitin–proteasome system (UPS) and autophagy, thereby maintaining intracellular proteostasis. P62 binds the autophagosomal membrane protein LC3 and brings p62-containing cytoplasmic contents to the autophagosome for degradation. […] This protein is normally degraded during autophagy after interaction with LC3 II [26]. On the other hand, accumulation of p62 has also been cited in cancer cells exposed to a variety of potential anticancer compounds [27, 28, 29].
(§1) A549 cells were seeded on Petri dishes (55 cm^2) at a density of 1 × 10^6 and allowed to culture in the medium. After 24 h, the test substance was added, and the cells were incubated for 24, 48 and 72 h. […] After lysis, the cells were sonicated, and the protein concentration in the samples was quantified using the Pierce® BCA Protein Assay Kit (Thermo Scientific, Rockford, IL, USA) and measured by an automated Cytation™ 3 Cell Imaging Multi-Mode Reader (Biotek) at a wavelength of 570 nm. […]

In a further assay the test system is LC3A/B. The experiment in a line: Western blot, LC3A/B. The following applies: A549, all time periods.
From the text: LC3A/B, a microtubule-associated protein 1A/1B-light chain 3 (LC3), is a soluble intracellular protein. After synthesis of the pro-LC3 protein, this protein is first cleaved to form its cytosolic form known as LC3-I. The cytosolic form of LC3 (LC3-I) conjugates with phosphatidylethanolamine to form the LC3-phosphatidylethanolamine conjugate (LC3-II), which is recruited to autophagosomal membranes. After the formation of autophagosomes, their fusion with lysosomes occurs, autolysosomes are formed, and intra-autophagosomal material (cytoplasmic components including cytosolic proteins and organelles) is degraded by lysosomal hydrolases. Changes in the levels of the autophagosomal marker LC3-II are considered a sign of ongoing autophagy, and its lysosomal turnover thus reflects autophagic activity. […] Association of LC3A/B up-regulation and autophagy induction has also been referred previously.
as §1
(A western blot detects proteins with antibodies after separation by electrophoresis.)

Consider `CC(C)(C)OC(=O)n1cc(CNC(=O)Nc2ccc(NC(=O)NCc3cn(C(=O)OC(C)(C)C)c4ccccc34)cc2)c2ccccc21` [Compound 49, N,N′-(1,4-phenylene)bis{N′-[1-(tert-butoxycarbonyl)indol-3-yl]methyl (urea)}], for which the values for the GR in assay [1] (24 h), in assay [1] (48 h) and in assay [1] (72 h) were 8.200 ± 2.97 μkat/mg Prot, 11.270 ± 1.04 μkat/mg Prot and 10.100 ± 2.89 μkat/mg Prot, respectively. In the assay with p62/SQSTM1, the p62 expression result was “significant increase”. Also, the LC3A/B protein expression entry with LC3A/B is “significantly increased”.
